From patent US10240133B2, “ERK-derived peptides and uses thereof” (Yeda Research and Development Co. Ltd., priority 2013, dated 2019)
Entries after “also recorded” stand apart in the source; their conditions may differ.

What was measured:
[1] = system: N-Ras transformed melanoma cells LOXIMVI; assay: Cell viability, EPE peptide compared with PLX4032; assay type: cell-based; conditions: EPE 10 μM, PLX4032 1 μM, 1% FCS
Description: (§1) FIGS. 3A-3B illustrate that EPE peptide prevents proliferation of cancer but not normal cells. (A) Effect of the EPE peptide on the proliferation of various cell lines. Sixteen cancer and four “normal” immortalized cell lines were treated with either EPE or scrambled peptides as described above. Viable cells were assayed by Methylene Blue at 48 or 72 hours after cell seeding. The data from at least three independent experiments is presented as percent of the amount of viable cells/initial cell number, where initial cell number was considered as 100. (B) Comparison of the effects of the EPE-peptide and Raf inhibitor PLX4032 on cell viability. NHEM-Ad, LOXIMVI, A2352, Hela MDA-MB-231, and DU-145 cells were treated with EPE peptide, scrambled peptide, (10 μM), PLX4032 (1 μM), DMSO control, or no treatment at 1% FCS. The number of cells was detected as above. The graphs present the kinetic of cell growth at the indicated times. All experiments were repeated 3 times in triplicates.
(§2) All cells, except of MCF-10A, were seeded into 12-well cell plates in 1% FBS medium. MCF-10A cells were seeded in their complete medium diluted 5 fold. DMSO, Scr peptide, EPE peptide, or U0126 (final concentration of 10 μM each) were added to the appropriated wells four hours later. Every day medium was changed to fresh one containing the same agents. The number of viable cells was measured by Methylene Blue assay at 72 h after cell seeding. Shortly, cells were fixed with 4% Formaldehyde for 2 h at 23° C., washed once with 0.1M Borate Buffer pH 8.5 and stained with of 1% Methylene Blue in 0.1M Borate Buffer for 10 min. Color was extracted by adding 0.1 M HCl for 3 h at 23° C., and examined at 595 nm. For time course experiments, viable cells were measured at 0, 24, 48, 72 and 96 h after cell seeding. For dose response experiments we treaded the cells with 0.1, 1, 3, 10, or 30 μM of peptides for 72 h, as described above.

[2] = system: all other transformed cell lines examined (A2352, Hela, MDA-MB-231, DU-145); assay: Cell viability, EPE peptide compared with PLX4032; assay type: cell-based; conditions: EPE 10 μM, PLX4032 1 μM, 1% FCS
Description: as §1, §2

[3] = system: ERK1/2; assay: Western blotting of ERK phosphorylation (TEY, NTS); assay type: cell-based
Description: (§3) (A) EPE peptide prevents ERK1/2-importin7 interaction. HeLa cells were serum starved (0.1%, 16 hours), pretreated with EPE peptide, scrambled peptide (10 μM, 2 hours) or DMSO, and then stimulated with TPA (250 nM, 15 min). ERK1 were precipitated with αgERK1 Ab; importin7 co-immunoprecipitated with ERK1 was detected by WB with αimportin7 Ab. […] T47D, HeLa, MDA-MB-231 and A2352 cells were serum starved (0.1%, 16 hours), pretreated with EPE peptide, scrambled peptide (10 μM, 2 hours) or DMSO control, and then stimulated with TPA (250 nM, indicated times). Cell extracts were subjected to Western blot analysis with the indicated Abs. (C) EPE peptide inhibits phosphorylation of c-Myc and Elk1 in B-Raf melanomas. A2158 and A2352 cells were treated with scrambled and EPE peptide for two hours and then stimulated with the indicated concentration of TPA for 30 min. […] (D) Quantification of some of the results in B and C. […]
(§4) (i) Preparation of cellular extracts for Western Blotting: Cells were rinsed twice with ice-cold PBS and scraped into Radio-immunoprecipitation assay buffer (RIPA; 137 mM NaCl, 20 mM Tris (pH 7.4), 10% glycerol, 1% Triton X-100, 0.5% deoxycholate, 0.1% SDS, 2 mM EDTA, 1 mM PMSF, and 20 μM leupeptin). The extracts were centrifuged (20,000×g, 15 min, 4° C.), and the supernatants were further analyzed by Western blotting. […]

[4] = Systemic toxicity in xenograft-bearing mice (body weight, organ histology); conditions: treated animals, end of experiment
Description: Female SCID mice (Harlan), 5-6 weeks of age, were inoculated s.c. into the flank region with 10^7 A2352 cells in 150 μl mixture of PBS with matrigel (2:1). Tumors were allowed to develop to the size of 5-6.5 mm in diameter (50˜110 mm^3 volume) and then the animals were randomly allocated to different treatment groups. The peptides (100 mM stock in DMSO), were diluted to the necessary concentration in PBS and boiled for 5 minutes. Then, DMSO, Scr or EPE peptides were administered by i.v. injection into the tail vein (150 μl/mouse, 3 times a week). Tumor dimensions were measured with a digital sliding caliper. Tumor volume was calculated using the formula: V=D1×D2×D3×π/6, where D1, D2, D3—represent the three mutually orthogonal growth diameters. To assess any signs of systemic toxicity, body weight was monitored, and recorded at the end of the experiment.
Tumor xenografts, lungs, livers, kidneys and hearts of animals from different treatment groups were removed and subjected for histological analysis by staining of 5 μm paraffin embedded tissue slides with H&E, and examination by light microscope. […] Briefly, paraffin embedded blocks of tumors after different treatments were cut at 4 μm thickness and stained with ERK Abs, followed by second antibodies conjugated to peroxidase and DAB staining. Representative fields of each specimen were photographed at ×20 and ×40 magnifications.

[5] = system: low passage A2352 B-Raf melanoma xenograft; assay: Tumor xenograft growth; assay type: in vivo, SCID mice; conditions: tail vein administration
Description: FIGS. 6A-6B illustrate that the EPE peptide prevents the growth of human tumor xenografts. CD-1 nude mice were inoculated with MDA-MB-231, LOXIMVI and HCT-116 cells, and SKID mice were inoculated with A2352 cells. Upon tumors establishment, the mice were treated intravenously with the DMSO as well as EPE or Scr peptides in the indicated doses, 3 times a week. The results are averages of 5 mice in each experimental group. The X, Y, Z dimensions of the tumors were measured with a caliper, and the volume was calculated accordingly. The significance of all experiments was at least P<0.001. (B) The EPE peptide prevents tumor recurrence on melanoma xenograft. SCID mice were inoculated with A2352 cells. Upon establishment of tumors mice were treated intravenously with 15 mg/kg EPE peptide (n=7) or intraperitonealy with 15 mg/kg PLX4032 (n=5), at the indicated dose 3 times a week. Tumor size was recorded at the same time using a caliper. Following 3 weeks of treatment, mice were kept for further evaluation monitoring for any tumor recurrence of the effective treated melanoma xenografts. Experiment was concluded 110 days post inoculation (11 weeks after the last treatment) and the overall state of the animals was evaluated. sac=sacrificed, recur=recurrence, met=metastasis.
Tumor dimensions were measured with a digital sliding caliper.

[6] = system: c-Myc; assay: Western blotting of c-Myc phosphorylation; assay type: cell-based; conditions: A2158 and A2352 B-Raf melanomas
Description: as §3, §4

## GQLNHILGILGEPEQED (Synthetic peptide (EPE)) [EPE peptide, NTS-derived peptide with phosphomimetic EPE motif]
[1]
  viability: able to reduce the viability
[2]
  effect on viability relative to PLX4032: at least as good, or even better, than that of PLX4032
[3]; T47D, HeLa, MDA-MB-231 and A2352 cells
  NTS phosphorylation (by CK2) of ERK1/2: only slightly affected; also recorded: prevents ERK1/2's NTS
[3]; four distinct cell lines
  activatory ERK-TEY phosphorylation: no effect
[4]
  change in weight, organ morphology or other toxicity-related effects: None of the animal treated exhibited any significant change
[5]
  time to complete eradication of melanoma xenograft: ≤ 2 weeks
[6]
  phosphorylation of c-Myc: did inhibit
